Data taken from publication PMC6332596 (Journal of Hematology & Oncology, 2019).
Like-named read-outs stand apart in the source and are kept apart here.

Legend:
VEGFR2 = tested on: VEGFR2; design: method as in PMID 28004478; conditions: cited from earlier work
VEGFR3 = tested on: VEGFR3; design: method as in PMID 28004478; conditions: cited from earlier work
c-Kit = tested on: c-Kit; design: method as in PMID 28004478; conditions: cited from earlier work
[1] = tested on: off-target non-receptor kinases, proteins, GPCR, and ion channels; design: method as in PMID 28004478; conditions: cited from earlier work
[2] = Grade 1, worst grade per patient in all cycles, N = 18
[3] = Grade 2, worst grade per patient in all cycles, N = 18
[4] = Grade 3, worst grade per patient in all cycles, N = 18
[5] = Grade 4, worst grade per patient in all cycles, N = 18
[6] = Grade 5, worst grade per patient in all cycles, N = 18

Structure (SMILES): COc1ccc2c(Oc3ccc4c(C(=O)Nc5ccccc5N)cccc4c3)ccnc2c1 [chiauranib]
- patients with DLT (grade 3 hypertension) (65 mg/day cohort (n = 4), cycle 1): two
- serious adverse events (SAE) reported (20-mg dose level, death from pulmonary infection, assessed unlikely related): one
- Treatment-related adverse event: ALT increased [2]: 2 (11.1) n (%)
- Treatment-related adverse event: AST increased [2]: 3 (16.7) n (%)
- Treatment-related adverse event: Abdominal pain [2]: 2 (11.1) n (%)
- Treatment-related adverse event: Amylase increased [2]: 3 (16.7) n (%)
- Treatment-related adverse event: Blood urea increased [2]: 2 (11.1) n (%)
- Treatment-related adverse event: Conjugated bilirubin increased [2]: 5 (27.8) n (%)
- Treatment-related adverse event: Decreased appetite [2]: 0 n (%)
- Treatment-related adverse event: Diarrhea [2]: 2 (11.1) n (%)
- Treatment-related adverse event: Dysphonia [2]: 2 (11.1) n (%)
- Treatment-related adverse event: Fatigue [2]: 7 (38.9) n (%)
- Treatment-related adverse event: Hematuria [2]: 7 (38.9) n (%)
- Treatment-related adverse event: Hyperbilirubinemia [2]: 2 (11.1) n (%)
- Treatment-related adverse event: Hypertension [2]: 3 (16.7) n (%)
- Treatment-related adverse event: Hypertriglyceridemia [2]: 5 (27.8) n (%)
- Treatment-related adverse event: Hypothyroidism [2]: 7 (38.9) n (%)
- Treatment-related adverse event: Leucopenia [2]: 2 (11.1) n (%)
- Treatment-related adverse event: Mouth ulceration [2]: 1 (5.6) n (%)
- Treatment-related adverse event: Nausea [2]: 4 (22.2) n (%)
- Treatment-related adverse event: Neutropenia [2]: 2 (11.1) n (%)
- Treatment-related adverse event: Palmar-plantar erythrodysesthesia syndrome [2]: 1 (5.6) n (%)
- Treatment-related adverse event: Proteinuria [2]: 8 (44.4) n (%)
- Treatment-related adverse event: Rash [2]: 1 (5.6) n (%)
- Treatment-related adverse event: Thrombocytopenia [2]: 2 (11.1) n (%)
- Treatment-related adverse event: Unconjugated bilirubin increased [2]: 2 (11.1) n (%)
- Treatment-related adverse event: Vaginal hemorrhage [2]: 2 (11.1) n (%)
- Treatment-related adverse event: ALT increased [3]: 0 n (%)
- Treatment-related adverse event: AST increased [3]: 0 n (%)
- Treatment-related adverse event: Abdominal pain [3]: 0 n (%)
- Treatment-related adverse event: Amylase increased [3]: 1 (5.6) n (%)
- Treatment-related adverse event: Blood urea increased [3]: 0 n (%)
- Treatment-related adverse event: Conjugated bilirubin increased [3]: 0 n (%)
- Treatment-related adverse event: Decreased appetite [3]: 2 (11.1) n (%)
- Treatment-related adverse event: Diarrhea [3]: 1 (5.6) n (%)
- Treatment-related adverse event: Dysphonia [3]: 0 n (%)
- Treatment-related adverse event: Fatigue [3]: 4 (22.2) n (%)
- Treatment-related adverse event: Hematuria [3]: 0 n (%)
- Treatment-related adverse event: Hyperbilirubinemia [3]: 0 n (%)
- Treatment-related adverse event: Hypertension [3]: 1 (5.6) n (%)
- Treatment-related adverse event: Hypertriglyceridemia [3]: 1 (5.6) n (%)
- Treatment-related adverse event: Hypothyroidism [3]: 0 n (%)
- Treatment-related adverse event: Leucopenia [3]: 1 (5.6) n (%)
- Treatment-related adverse event: Mouth ulceration [3]: 1 (5.6) n (%)
- Treatment-related adverse event: Nausea [3]: 0 n (%)
- Treatment-related adverse event: Neutropenia [3]: 0 n (%)
- Treatment-related adverse event: Palmar-plantar erythrodysesthesia syndrome [3]: 1 (5.6) n (%)
- Treatment-related adverse event: Proteinuria [3]: 0 n (%)
- Treatment-related adverse event: Rash [3]: 1 (5.6) n (%)
- Treatment-related adverse event: Thrombocytopenia [3]: 0 n (%)
- Treatment-related adverse event: Unconjugated bilirubin increased [3]: 0 n (%)
- Treatment-related adverse event: Vaginal hemorrhage [3]: 0 n (%)
- Treatment-related adverse event: ALT increased [4]: 0 n (%)
- Treatment-related adverse event: AST increased [4]: 0 n (%)
- Treatment-related adverse event: Abdominal pain [4]: 0 n (%)
- Treatment-related adverse event: Amylase increased [4]: 0 n (%)
- Treatment-related adverse event: Blood urea increased [4]: 0 n (%)
- Treatment-related adverse event: Conjugated bilirubin increased [4]: 0 n (%)
- Treatment-related adverse event: Decreased appetite [4]: 0 n (%)
- Treatment-related adverse event: Diarrhea [4]: 0 n (%)
- Treatment-related adverse event: Dysphonia [4]: 0 n (%)
- Treatment-related adverse event: Fatigue [4]: 0 n (%)
- Treatment-related adverse event: Hematuria [4]: 0 n (%)
- Treatment-related adverse event: Hyperbilirubinemia [4]: 0 n (%)
- Treatment-related adverse event: Hypertension [4]: 2 (11.1) n (%)
- Treatment-related adverse event: Hypertriglyceridemia [4]: 0 n (%)
- Treatment-related adverse event: Hypothyroidism [4]: 0 n (%)
- Treatment-related adverse event: Leucopenia [4]: 0 n (%)
- Treatment-related adverse event: Mouth ulceration [4]: 0 n (%)
- Treatment-related adverse event: Nausea [4]: 0 n (%)
- Treatment-related adverse event: Neutropenia [4]: 2 (11.1) n (%)
- Treatment-related adverse event: Palmar-plantar erythrodysesthesia syndrome [4]: 0 n (%)
- Treatment-related adverse event: Proteinuria [4]: 0 n (%)
- Treatment-related adverse event: Rash [4]: 0 n (%)
- Treatment-related adverse event: Thrombocytopenia [4]: 0 n (%)
- Treatment-related adverse event: Unconjugated bilirubin increased [4]: 0 n (%)
- Treatment-related adverse event: Vaginal hemorrhage [4]: 0 n (%)
- Treatment-related adverse event: ALT increased [5]: 0 n (%)
- Treatment-related adverse event: AST increased [5]: 0 n (%)
- Treatment-related adverse event: Abdominal pain [5]: 0 n (%)
- Treatment-related adverse event: Amylase increased [5]: 0 n (%)
- Treatment-related adverse event: Blood urea increased [5]: 0 n (%)
- Treatment-related adverse event: Conjugated bilirubin increased [5]: 0 n (%)
- Treatment-related adverse event: Decreased appetite [5]: 0 n (%)
- Treatment-related adverse event: Diarrhea [5]: 0 n (%)
- Treatment-related adverse event: Dysphonia [5]: 0 n (%)
- Treatment-related adverse event: Fatigue [5]: 0 n (%)
- Treatment-related adverse event: Hematuria [5]: 0 n (%)
- Treatment-related adverse event: Hyperbilirubinemia [5]: 0 n (%)
- Treatment-related adverse event: Hypertension [5]: 0 n (%)
- Treatment-related adverse event: Hypertriglyceridemia [5]: 0 n (%)
- Treatment-related adverse event: Hypothyroidism [5]: 0 n (%)
- Treatment-related adverse event: Leucopenia [5]: 0 n (%)
- Treatment-related adverse event: Mouth ulceration [5]: 0 n (%)
- Treatment-related adverse event: Nausea [5]: 0 n (%)
- Treatment-related adverse event: Neutropenia [5]: 0 n (%)
- Treatment-related adverse event: Palmar-plantar erythrodysesthesia syndrome [5]: 0 n (%)
- Treatment-related adverse event: Proteinuria [5]: 0 n (%)
- Treatment-related adverse event: Rash [5]: 0 n (%)
- Treatment-related adverse event: Thrombocytopenia [5]: 0 n (%)
- Treatment-related adverse event: Unconjugated bilirubin increased [5]: 0 n (%)
- Treatment-related adverse event: Vaginal hemorrhage [5]: 0 n (%)
- Treatment-related adverse event: ALT increased [6]: 0 n (%)
- Treatment-related adverse event: AST increased [6]: 0 n (%)
- Treatment-related adverse event: Abdominal pain [6]: 0 n (%)
- Treatment-related adverse event: Amylase increased [6]: 0 n (%)
- Treatment-related adverse event: Blood urea increased [6]: 0 n (%)
- Treatment-related adverse event: Conjugated bilirubin increased [6]: 0 n (%)
- Treatment-related adverse event: Decreased appetite [6]: 0 n (%)
- Treatment-related adverse event: Diarrhea [6]: 0 n (%)
- Treatment-related adverse event: Dysphonia [6]: 0 n (%)
- Treatment-related adverse event: Fatigue [6]: 0 n (%)
- Treatment-related adverse event: Hematuria [6]: 0 n (%)
- Treatment-related adverse event: Hyperbilirubinemia [6]: 0 n (%)
- Treatment-related adverse event: Hypertension [6]: 0 n (%)
- Treatment-related adverse event: Hypertriglyceridemia [6]: 0 n (%)
- Treatment-related adverse event: Hypothyroidism [6]: 0 n (%)
- Treatment-related adverse event: Leucopenia [6]: 0 n (%)
- Treatment-related adverse event: Mouth ulceration [6]: 0 n (%)
- Treatment-related adverse event: Nausea [6]: 0 n (%)
- Treatment-related adverse event: Neutropenia [6]: 0 n (%)
- Treatment-related adverse event: Palmar-plantar erythrodysesthesia syndrome [6]: 0 n (%)
- Treatment-related adverse event: Proteinuria [6]: 0 n (%)
- Treatment-related adverse event: Rash [6]: 0 n (%)
- Treatment-related adverse event: Thrombocytopenia [6]: 0 n (%)
- Treatment-related adverse event: Unconjugated bilirubin increased [6]: 0 n (%)
- Treatment-related adverse event: Vaginal hemorrhage [6]: 0 n (%)
- treatment-related AE exceeding grade 3 (N = 18): No treatment-related AE exceeded grade 3 was observed
- treatment-related deaths (N = 18): No treatment-related deaths occurred
- treatment-related fatigue, irrespective of grade (N = 18): 61.1%
- treatment-related grade 3 hyperglycemia (N = 18): one
- treatment-related grade 3 hypertension (N = 18): two
- treatment-related grade 3 neutropenia (N = 18): two
- treatment-related hematuria, irrespective of grade (N = 18): 38.9%
- treatment-related hypertension, irrespective of grade (N = 18): 33.3%
- treatment-related hypertriglyceridemia, irrespective of grade (N = 18): 33.3%
- treatment-related hypothyroidism, irrespective of grade (N = 18): 38.9%
- treatment-related proteinuria, irrespective of grade (N = 18): 44.4%
- patients with at least one AE (N = 18, all dose levels): 18 patients
- patients with at least one treatment-related AE (N = 18, all dose levels): 94.4%
- Treatment-related adverse event: ALT increased (Total, all cycles, N = 18): 2 (11.1) n (%)
- Treatment-related adverse event: AST increased (Total, all cycles, N = 18): 3 (16.7) n (%)
- Treatment-related adverse event: Abdominal pain (Total, all cycles, N = 18): 2 (11.1) n (%)
- Treatment-related adverse event: Amylase increased (Total, all cycles, N = 18): 4 (22.2) n (%)
- Treatment-related adverse event: Blood urea increased (Total, all cycles, N = 18): 2 (11.1) n (%)
- Treatment-related adverse event: Conjugated bilirubin increased (Total, all cycles, N = 18): 5 (27.8) n (%)
- Treatment-related adverse event: Decreased appetite (Total, all cycles, N = 18): 2 (11.1) n (%)
- Treatment-related adverse event: Diarrhea (Total, all cycles, N = 18): 3 (16.7) n (%)
- Treatment-related adverse event: Dysphonia (Total, all cycles, N = 18): 2 (11.1) n (%)
- Treatment-related adverse event: Fatigue (Total, all cycles, N = 18): 11 (61.1) n (%)
- Treatment-related adverse event: Hematuria (Total, all cycles, N = 18): 7 (38.9) n (%)
- Treatment-related adverse event: Hyperbilirubinemia (Total, all cycles, N = 18): 2 (11.1) n (%)
- Treatment-related adverse event: Hypertension (Total, all cycles, N = 18): 6 (33.3) n (%)
- Treatment-related adverse event: Hypertriglyceridemia (Total, all cycles, N = 18): 6 (33.3) n (%)
- Treatment-related adverse event: Hypothyroidism (Total, all cycles, N = 18): 7 (38.9) n (%)
- Treatment-related adverse event: Leucopenia (Total, all cycles, N = 18): 3 (16.7) n (%)
- Treatment-related adverse event: Mouth ulceration (Total, all cycles, N = 18): 2 (11.1) n (%)
- Treatment-related adverse event: Nausea (Total, all cycles, N = 18): 4 (22.2) n (%)
- Treatment-related adverse event: Neutropenia (Total, all cycles, N = 18): 4 (22.2) n (%)
- Treatment-related adverse event: Palmar-plantar erythrodysesthesia syndrome (Total, all cycles, N = 18): 2 (11.1) n (%)
- Treatment-related adverse event: Proteinuria (Total, all cycles, N = 18): 8 (44.4) n (%)
- Treatment-related adverse event: Rash (Total, all cycles, N = 18): 2 (11.1) n (%)
- Treatment-related adverse event: Thrombocytopenia (Total, all cycles, N = 18): 2 (11.1) n (%)
- Treatment-related adverse event: Unconjugated bilirubin increased (Total, all cycles, N = 18): 2 (11.1) n (%)
- Treatment-related adverse event: Vaginal hemorrhage (Total, all cycles, N = 18): 2 (11.1) n (%)
- MTD (administered orally once daily): 50 mg
- recommended phase II dose (RP2D) (administered orally once daily, monotherapy): 50 mg
- maximum tolerated dose (MTD) (patients, oral once daily, 28-day cycles): 50 mg/day
- IC50 (VEGFR2): single-digit nanomolar range
- IC50 (VEGFR3): single-digit nanomolar range
- IC50 (c-Kit): single-digit nanomolar range
- activity on off-targets [1]: little activity
